According to patent publication US11174251B2, “Compositions and methods for inhibition of the JAK pathway” (Rigel Pharmaceuticals, Inc., priority 2010, dated 2021):
Counter-ions that a name gives are not always drawn.

Biological target: T1, JAK3 (Homo sapiens, UniProt P52333)
T1 construct: The Ramos B-cell line was acquired from ATCC (ATCC Catalog No. CRL-1596); host or cells: Ramos B-cell line (human)
T1 sequence (P52333 1-1124): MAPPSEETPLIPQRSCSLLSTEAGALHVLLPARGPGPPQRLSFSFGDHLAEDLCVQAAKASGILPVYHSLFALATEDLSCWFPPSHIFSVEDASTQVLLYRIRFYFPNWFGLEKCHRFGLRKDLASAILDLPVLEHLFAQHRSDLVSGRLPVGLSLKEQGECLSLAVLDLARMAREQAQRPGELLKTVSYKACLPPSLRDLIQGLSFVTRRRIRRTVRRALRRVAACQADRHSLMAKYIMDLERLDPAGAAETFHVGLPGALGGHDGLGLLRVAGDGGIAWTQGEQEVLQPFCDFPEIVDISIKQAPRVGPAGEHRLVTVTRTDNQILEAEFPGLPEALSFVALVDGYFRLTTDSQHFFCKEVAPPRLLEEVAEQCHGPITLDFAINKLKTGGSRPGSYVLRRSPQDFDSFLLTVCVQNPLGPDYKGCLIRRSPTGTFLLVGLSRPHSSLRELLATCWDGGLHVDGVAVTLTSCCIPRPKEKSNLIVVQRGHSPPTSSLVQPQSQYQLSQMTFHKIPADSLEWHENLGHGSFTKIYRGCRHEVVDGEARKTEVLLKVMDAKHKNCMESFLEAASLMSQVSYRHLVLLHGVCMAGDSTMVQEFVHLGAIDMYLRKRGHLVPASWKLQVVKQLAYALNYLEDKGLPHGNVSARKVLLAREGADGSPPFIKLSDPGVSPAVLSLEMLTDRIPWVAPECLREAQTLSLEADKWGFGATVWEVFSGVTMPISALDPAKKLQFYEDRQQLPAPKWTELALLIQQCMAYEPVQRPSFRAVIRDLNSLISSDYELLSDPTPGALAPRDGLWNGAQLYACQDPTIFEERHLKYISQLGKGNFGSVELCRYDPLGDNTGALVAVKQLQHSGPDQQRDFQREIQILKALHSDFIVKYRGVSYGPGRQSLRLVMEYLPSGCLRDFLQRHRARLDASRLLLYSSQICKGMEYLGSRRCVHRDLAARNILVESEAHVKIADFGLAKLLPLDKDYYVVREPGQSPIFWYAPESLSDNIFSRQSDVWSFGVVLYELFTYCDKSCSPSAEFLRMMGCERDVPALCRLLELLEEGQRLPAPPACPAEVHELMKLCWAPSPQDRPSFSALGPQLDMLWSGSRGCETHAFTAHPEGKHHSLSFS
Assay: Assay for CD23 expression on Ramos B-cells stimulated by IL-4 (Table IV: ability to inhibit JAK3 activity)
Assay type: cell-based
Details: tested under conditions described in Example 3 (so in the source)
Procedure, shortened: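 IL-4-induced CD23 surface expression on human Ramos B cells, detected by flow cytometry after 20–24 h stimulation (IL-4 final 50 units/mL). Compound or DMSO added 1 h beforehand at 37 °C; cells kept in RPMI with 5% serum.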

Structure (SMILES)	IC50 [nM]
COc1cc(Nc2ncc(F)c(Nc3ccc4oc(=O)[nH]c4c3)n2)cc(OC)c1C [Compound I-194, 5-(2-(3,5-dimethoxy-4-methylphenylamino)-5-fluoropyrimidin-4-ylamino)benzo[d]oxazol-2(3H)-one trifluoroacetate salt]	500 to 5000
COc1cc(Nc2ncc(CO)c(Nc3ccc4oc(=O)[nH]c4c3)n2)cc(C)c1F [Compound I-80, 5-(2-(4-fluoro-3-methoxy-5-methylphenylamino)-5-(hydroxymethyl)pyrimidin-4-ylamino)benzo[d]oxazol-2(3H)-one trifluoroacetate salt]	500 to 5000
COc1cc(Nc2ncc(F)c(Nc3cc(C)c4oc(=O)[nH]c4c3)n2)cc(C(F)(F)F)c1 [Compound I-176, 5-(2-(3-(trifluoromethyl)-5-methoxyphenylamino)-5-fluoropyrimidin-4-ylamino)-7-methylbenzo[d]oxazol-2(3H)-one trifluoroacetate salt]	> 10000
CN1CCN(c2cc(F)cc(Nc3ncc(F)c(Nc4ccc5oc(=O)[nH]c5c4)n3)c2)CC1 [Compound I-170, 5-(2-(3-fluoro-5-(4-methylpiperazin-1-yl)phenylamino)-5-fluoropyrimidin-4-ylamino)benzo[d]oxazol-2(3H)-one ditrifluoroacetate salt]	< 500
COc1ccc(Nc2ncc(F)c(Nc3ccc4oc(=O)[nH]c4c3)n2)cc1-c1cccnc1 [Compound I-209, 5-(2-(4-methoxy-3-(pyridin-3-yl)phenylamino)-5-fluoropyrimidin-4-ylamino)benzo[d]oxazol-2(3H)-one formate salt]	< 500
Cc1ccc(Nc2ncc(Cl)c(Nc3ccc4oc(=O)[nH]c4c3)n2)cc1C [Compound I-5, 5-(5-chloro-2-(3,4-dimethylphenylamino)pyrimidin-4-ylamino)benzo[d]oxazol-2(3H)-one trifluoroacetate salt]	< 500
Cc1cc(Nc2ncc(C)c(Nc3ccc4oc(=O)[nH]c4c3)n2)ncc1C#N [II-22, N2-(5-cyano-4-methylpyridin-2-yl)-5-methyl-N4-(2-oxo-2,3-dihydro-1,3-benzoxazol-5-yl)-2,4-pyrimidinediamine]	500 to 5000
CC(C)(C)c1ccc(Nc2ncc(F)c(Nc3ccc4oc(=O)[nH]c4c3)n2)cc1 [Compound I-201, 5-(2-(4-tert-butylphenylamino)-5-fluoropyrimidin-4-ylamino)benzo[d]oxazol-2(3H)-one trifluoroacetate salt]	500 to 5000
N#Cc1cccc(Nc2ncc(Cl)c(Nc3ccc4oc(=O)[nH]c4c3)n2)c1F [Compound I-73, 3-(5-chloro-4-(2-oxo-2,3-dihydrobenzo[d]oxazol-5-ylamino)pyrimidin-2-ylamino)-2-fluorobenzonitrile trifluoroacetate salt]	< 500
CCCNC(=O)c1ccc(Nc2ncc(F)c(Nc3ccc4oc(=O)[nH]c4c3)n2)cc1 [Compound I-160, 4-(5-fluoro-4-(2-oxo-2,3-dihydrobenzo[d]oxazol-5-ylamino)pyrimidin-2-ylamino)-N-propylbenzamide formate salt]	< 500
Cc1cc(Nc2ncc(F)c(Nc3ccc4oc(=O)[nH]c4c3)n2)cc(C)c1C#N [Compound I-70, 4-(5-fluoro-4-(2-oxo-2,3-dihydrobenzo[d]oxazol-5-ylamino)pyrimidin-2-ylamino)-2,6-dimethylbenzonitrile]	< 500
Cc1cnc(Nc2ccc3c(c2)C(=O)NC3)nc1Nc1ccc2oc(=O)[nH]c2c1 [II-11, 5-methyl-N4-(2-oxo-2,3-dihydro-1,3-benzoxazol-5-yl)-N2-(1-oxo-1,3-dihydro-2H-isoindol-6-yl)-2,4-pyrimidinediamine]	< 500

The remaining lines, values ahead:

IC50 [nM]	Structure (SMILES)
< 500	COc1ccc(Nc2ncc(Cl)c(Nc3ccc4oc(=O)[nH]c4c3)n2)c(F)c1 [Compound I-76, 5-(5-chloro-2-(2-fluoro-4-methoxyphenylamino)pyrimidin-4-ylamino)benzo[d]oxazol-2(3H)-one trifluoroacetate salt]
< 500	COc1ccc(Nc2ncc(F)c(Nc3cc(F)c4oc(=O)[nH]c4c3)n2)cc1C [Compound I-180, 5-(2-(4-methoxy-3-methylphenylamino)-5-fluoropyrimidin-4-ylamino)-7-fluorobenzo[d]oxazol-2(3H)-one trifluoroacetate salt]
< 500	Cc1cc(Nc2nc(Nc3cccc(S(N)(=O)=O)c3)ncc2F)cc2[nH]c(=O)oc12 [Compound I-171, 3-(5-fluoro-4-(7-methyl-2-oxo-2,3-dihydrobenzo[d]oxazol-5-ylamino)pyrimidin-2-ylamino)benzenesulfonamide trifluoroacetate salt]
< 500	Cc1cnc(Nc2cc(C)c(C#N)c(C)c2)nc1Nc1ccc2oc(=O)[nH]c2c1 [Compound I-64, 2,6-Dimethyl-4-[5-methyl-4-(2-oxo-2,3-dihydro-benzooxazol-5-ylamino)-pyrimidin-2-ylamino]-benzonitrile trifluoroacetate salt]
< 500	O=C(NC1CCC1)c1ccc(Nc2ncc(F)c(Nc3ccc4oc(=O)[nH]c4c3)n2)cc1 [Compound I-159, N-cyclobutyl-4-(5-fluoro-4-(2-oxo-2,3-dihydrobenzo[d]oxazol-5-ylamino)pyrimidin-2-ylamino)benzamide formate salt]
< 500	COc1ccc(Nc2ncc(C)c(Nc3ccc4oc(=O)[nH]c4c3)n2)c(F)c1OC [Compound I-50, 5-[2-(2-Fluoro-3,4-dimethoxy-phenylamino)-5-methyl-pyrimidin-4-ylamino]-3H-benzooxazol-2-one]
< 500	COc1c(C)ccc(Nc2ncc(Cl)c(Nc3ccc4oc(=O)[nH]c4c3)n2)c1F [Compound I-67, 5-(5-chloro-2-(2-fluoro-3-methoxy-4-methylphenylamino)pyrimidin-4-ylamino)benzo[d]oxazol-2(3H)-one]
< 500	O=C1COc2cc(Nc3ncc(F)c(Nc4ccc5oc(=O)[nH]c5c4)n3)ccc2N1 [II-25, 7-(4-(2,3-dihydro-2-oxobenzo[d]oxazol-5-ylamino)-5-fluoropyrimidin-2-ylamino)-2H-benzo[b][1,4]oxazin-3(4H)-one formate salt]
< 500	Cc1cc(Nc2ncc(C)c(Nc3ccc4oc(=O)[nH]c4c3)n2)cc(C)n1 [II-19, N2-(2,6-dimethylpyridin-4-yl)-5-methyl-N4-(2-oxo-2,3-dihydro-1,3-benzoxazol-5-yl)-2,4-pyrimidinediamine]
< 500	COC(=O)c1c(C)cc(Nc2ncc(C)c(Nc3ccc4oc(=O)[nH]c4c3)n2)cc1C [Compound I-138, N2-(3,5-dimethyl-4-methoxycarbonyl)phenyl-5-methyl-N4-(2-oxo-2,3-dihydro-1,3-benzoxazol-5-yl)-2,4-pyrimidinediamine]
< 500	Cc1ccc(Nc2ncc(F)c(Nc3ccc4oc(=O)[nH]c4c3)n2)cc1-c1cccnc1 [Compound I-204, 5-(2-(4-methyl-3-(pyridin-3-yl)phenylamino)-5-fluoropyrimidin-4-ylamino)benzo[d]oxazol-2(3H)-one]
< 500	CN1C(=O)CCCc2cc(Nc3ncc(F)c(Nc4ccc5oc(=O)[nH]c5c4)n3)ccc21 [II-28, 7-(4-(2,3-dihydro-2-oxobenzo[d]oxazol-5-ylamino)-5-fluoropyrimidin-2-ylamino)-4,5-dihydro-1-methyl-1H-benzo[b]azepin-2(3H)-one trifluoroacetate salt]
< 500	C#Cc1cccc(Nc2ncc(C)c(Nc3ccc4oc(=O)[nH]c4c3)n2)c1 [Compound I-31, 5-[2-(3-Ethynyl-phenylamino)-5-methyl-pyrimidin-4-ylamino]-3H-benzooxazol-2-one]
< 500	Cc1cnc(Nc2cc(C)c(CO)c(C)c2)nc1Nc1ccc2oc(=O)[nH]c2c1 [Compound I-142, N2-(3,5-dimethyl-4-hydroxymethyl)phenyl-5-methyl-N4-(2-oxo-2,3-dihydro-1,3-benzoxazol-5-yl)-2,4-pyrimidinediamine]
< 500	COc1ccc(Nc2ncc(F)c(Nc3ccc4oc(=O)[nH]c4c3)n2)cc1-c1ccncc1 [Compound I-208, 5-(2-(4-methoxy-3-(pyridin-4-yl)phenylamino)-5-fluoropyrimidin-4-ylamino)benzo[d]oxazol-2(3H)-one formate salt]
